From patent US9700047B2, “Macrocyclic picolinamides as fungicides” (Dow AgroSciences LLC, priority 2014, dated 2017)
Read-outs that look alike come from different tables or passages of the source.

What was measured:
[1] = tested on: Puccinia triticina; Synonym: Puccinia recondita f sp. tritici; assay: Wheat brown rust (PUCCRT) disease control on wheat seedlings; type: in vivo; settings: for pest or weed control at 121.5 g/ha: Low Volume activity at 121.5 g/H; for pest or weed control at 100 ppm: High Volume activity at 100 ppm
Procedure: All fungicides were evaluated using the aforementioned method for their activity vs. all target diseases, unless stated otherwise. Wheat leaf blotch and brown rust activity were also evaluated using track spray applications, in which case the fungicides were formulated as EC formulations, containing 0.1% Trycol 5941 in the spray solutions. Wheat plants (variety Yuma) were grown from seed in a greenhouse in 50% mineral soil/50% soil-less Metro mix until the first leaf was fully emerged, with 7-10 seedlings per pot. These plants were inoculated with an aqueous spore suspension of Puccinia triticina either prior to or after fungicide treatments. […] The plants were then transferred to a greenhouse set at 24° C. for disease to develop. Fungicide formulation, application and disease assessment followed the procedures as described in the Example A.

Rhyncosporium secalis = assay: Barley scald (RHYNSE) disease control on barley seedlings; type: in vivo; settings: 100 ppm; 1 Day Protectant
Procedure: All fungicides were evaluated using the aforementioned method for their activity vs. all target diseases, unless stated otherwise. Wheat leaf blotch and brown rust activity were also evaluated using track spray applications, in which case the fungicides were formulated as EC formulations, containing 0.1% Trycol 5941 in the spray solutions. Barley seedlings (variety Harrington) were propagated in soil-less Metro mix, with each pot having 8 to 12 plants, and used in the test when first leaf was fully emerged. Test plants were inoculated by an aqueous spore suspension of Rhyncosporium secalis 24 hr after fungicide treatments. After inoculation the plants were kept in a dew room at 20° C. with 100% relative humidity for 48 hr. The plants were then transferred to a greenhouse set at 20° C. for disease to develop. Fungicide formulation, application and disease assessment on the sprayed leaves followed the procedures as described in the Example A.

[2] = 24 h, 1 Day Protectant, read-out: PUCCRT 1DP % Control rating
[3] = 72 h, 3 Day Curative, read-out: PUCCRT 3DC % Control rating

CCCC[C@@H]1[C@@H](Cc2ccc(C(F)(F)F)cc2)CCC[C@H](NC(=O)c2nccc(OC)c2OCOC(C)=O)C(=O)O[C@H]1C [Compound 3]
pest or weed control at 121.5 g/ha [1, 2]: > 70% | pest or weed control at 121.5 g/ha [1, 3]: < 70% | RHYNSE 1DP Disease Control rating (Rhyncosporium secalis): B (≦70)

CCOCC(=O)OCOc1c(OC)ccnc1C(=O)N[C@H]1CCC[C@H](Cc2ccc(Cl)cc2)[C@@H](Cc2ccccc2)[C@H](C)OC1=O [Compound 20]
pest or weed control at 121.5 g/ha [1, 2]: > 70% | pest or weed control at 121.5 g/ha [1, 3]: > 70%

COc1ccnc(C(=O)N[C@H]2CCC[C@H](Cc3ccccc3)[C@@H](C3CCCC3)[C@H](C)OC2=O)c1OCOC(C)=O [Compound 10]
pest or weed control at 121.5 g/ha [1, 2]: > 70% | pest or weed control at 121.5 g/ha [1, 3]: > 70%

COc1ccnc(C(=O)N[C@H]2CCC[C@H](CCC(C)C)[C@@H](C3CCCC3)[C@H](C)OC2=O)c1OCOC(=O)C(C)C [Compound 44]
pest or weed control at 121.5 g/ha [1, 2]: > 70% | pest or weed control at 121.5 g/ha [1, 3]: < 70%

COc1ccnc(C(=O)N[C@H]2CCC[C@H](Cc3ccc(C(F)(F)F)cc3)[C@@H](Cc3ccc(F)cc3)[C@H](C)OC2=O)c1O [Compound 86]
pest or weed control at 100 ppm [1, 2]: > 70% | pest or weed control at 100 ppm [1, 3]: < 70%

CCC[C@H]1CCC[C@H](NC(=O)c2nccc(OC)c2O)C(=O)O[C@@H](C)[C@@H]1c1ccccc1 [Compound 91]
pest or weed control at 100 ppm [1, 2]: > 70% | pest or weed control at 100 ppm [1, 3]: < 70%

COc1ccnc(C(=O)N[C@H]2CCC[C@H](CCCc3ccccc3)[C@@H](Cc3ccc(OC(F)(F)F)cc3)[C@H](C)OC2=O)c1O [Compound 93]
pest or weed control at 100 ppm [1, 2]: < 70% | pest or weed control at 100 ppm [1, 3]: < 70%

CCOCC(=O)OCOc1c(OC)ccnc1C(=O)N[C@H]1CCC[C@H](Cc2ccccc2)[C@@H](CCc2ccccc2)[C@H](C)OC1=O [Compound 16]
pest or weed control at 121.5 g/ha [1, 2]: > 70% | pest or weed control at 121.5 g/ha [1, 3]: > 70%

COc1ccnc(C(=O)N[C@H]2CCC[C@H](Cc3ccccc3)[C@@H](Cc3ccccc3)[C@H](C)OC2=O)c1O [Compound 74]
pest or weed control at 100 ppm [1, 2]: > 70% | pest or weed control at 100 ppm [1, 3]: > 70%

COc1ccnc(C(=O)N[C@H]2CCC[C@H](Cc3ccc(C(F)(F)F)cc3)[C@@H](CC(C)C)[C@H](C)OC2=O)c1O [Compound 80]
pest or weed control at 100 ppm [1, 2]: > 70% | pest or weed control at 100 ppm [1, 3]: < 70%

COc1ccnc(C(=O)N[C@H]2CCC[C@H](Cc3ccccc3)[C@@H](CCC(C)C)[C@H](C)OC2=O)c1OCOC(=O)C(C)C [Compound 50]
pest or weed control at 121.5 g/ha [1, 2]: > 70% | pest or weed control at 121.5 g/ha [1, 3]: < 70%

COc1ccnc(C(=O)N[C@H]2CCC[C@H](Cc3ccccc3)[C@@H](CC(C)C)[C@H](C)OC2=O)c1OCOC(C)=O [Compound 14]
pest or weed control at 121.5 g/ha [1, 2]: > 70% | pest or weed control at 121.5 g/ha [1, 3]: < 70%

COc1ccnc(C(=O)N[C@H]2CCC[C@H](Cc3ccc(C(F)(F)F)cc3)[C@@H](Cc3ccccc3)[C@H](C)OC2=O)c1OC(C)=O [Compound 25]
pest or weed control at 121.5 g/ha [1, 2]: < 70% | pest or weed control at 121.5 g/ha [1, 3]: < 70%

CCOCC(=O)OCOc1c(OC)ccnc1C(=O)N[C@H]1CCC[C@H](Cc2ccccc2)[C@@H](CCC(C)C)[C@H](C)OC1=O [Compound 51]
pest or weed control at 121.5 g/ha [1, 2]: > 70% | pest or weed control at 121.5 g/ha [1, 3]: < 70%

COc1ccnc(C(=O)N[C@H]2CCC[C@H](CCCc3ccccc3)[C@@H](Cc3ccc(OC(F)(F)F)cc3)[C@H](C)OC2=O)c1OC(C)=O [Compound 57]
pest or weed control at 121.5 g/ha [1, 2]: < 70% | pest or weed control at 121.5 g/ha [1, 3]: < 70%

COc1ccnc(C(=O)N[C@H]2CCC[C@H](Cc3ccc(C(F)(F)F)cc3)[C@@H](Cc3ccccc3)[C@H](C)OC2=O)c1OCOC(C)=O [Compound 26]
pest or weed control at 121.5 g/ha [1, 2]: > 70% | pest or weed control at 121.5 g/ha [1, 3]: < 70%

COc1ccnc(C(=O)N[C@H]2CCC[C@H](CCCc3ccccc3)[C@@H](CCc3ccccc3)[C@H](C)OC2=O)c1OCOC(C)=O [Compound 32]
pest or weed control at 121.5 g/ha [1, 2]: > 70% | pest or weed control at 121.5 g/ha [1, 3]: < 70%

COc1ccnc(C(=O)N[C@H]2CCC[C@H](CCC(C)C)[C@@H](CCc3ccccc3)[C@H](C)OC2=O)c1OC(C)=O [Compound 36]
pest or weed control at 121.5 g/ha [1, 2]: > 70% | pest or weed control at 121.5 g/ha [1, 3]: < 70%

CCCC[C@@H]1[C@@H](Cc2ccccc2)CCC[C@H](NC(=O)c2nccc(OC)c2OC(C)=O)C(=O)O[C@H]1C [Compound 1, 2-(((3S,7R,8R,9S)-7-benzyl-8-butyl-9-methyl-2-oxooxonan-3-yl)carbamoyl)-4-methoxypyridin-3-yl acetate]
pest or weed control at 100 ppm [1, 2]: > 70% | pest or weed control at 121.5 g/ha [1, 2]: > 70% | pest or weed control at 100 ppm [1, 3]: > 70% | pest or weed control at 121.5 g/ha [1, 3]: < 70%

COc1ccnc(C(=O)N[C@H]2CCC[C@H](Cc3ccccc3)[C@@H](CCc3ccccc3)[C@H](C)OC2=O)c1OCOC(C)=O [Compound 15]
pest or weed control at 121.5 g/ha [1, 2]: > 70% | pest or weed control at 121.5 g/ha [1, 3]: < 70%

COc1ccnc(C(=O)N[C@H]2CCC[C@H](Cc3ccccc3)[C@@H](Cc3ccccc3)[C@H](C)OC2=O)c1OCOC(=O)C(C)C [Compound 7, ((2-(((3S,7R,8R,9S)-7,8-dibenzyl-9-methyl-2-oxooxonan-3-yl)carbamoyl)-4-methoxypyridin-3-yl)oxy)methyl isobutyrate]
pest or weed control at 121.5 g/ha [1, 2]: > 70% | pest or weed control at 121.5 g/ha [1, 3]: > 70%

COc1ccnc(C(=O)N[C@H]2CCC[C@H](Cc3ccccc3)[C@@H](c3ccccc3)[C@H](C)OC2=O)c1OC(C)=O [Compound 53]
pest or weed control at 121.5 g/ha [1, 2]: > 70% | pest or weed control at 121.5 g/ha [1, 3]: < 70%
